Entries after “also recorded” stand apart in the source; their conditions may differ.
Target: T1, C2 domain deleted (ΔC2) SHIP1 enzyme (Mus musculus, UniProt Q9ES52, DEL725-860/G861A/K862A/M863A)
T1 construct: Full length, wild-type SHIP1 enzyme (wt) or SHIP1 enzyme in which the PH or C2 domains were deleted; made in house; 293T cells are stated only for the wild-type enzyme
T1 sequence (Q9ES52 with tags, fused parts or gaps DEL725-860/G861A/K862A/M863A limits assumed): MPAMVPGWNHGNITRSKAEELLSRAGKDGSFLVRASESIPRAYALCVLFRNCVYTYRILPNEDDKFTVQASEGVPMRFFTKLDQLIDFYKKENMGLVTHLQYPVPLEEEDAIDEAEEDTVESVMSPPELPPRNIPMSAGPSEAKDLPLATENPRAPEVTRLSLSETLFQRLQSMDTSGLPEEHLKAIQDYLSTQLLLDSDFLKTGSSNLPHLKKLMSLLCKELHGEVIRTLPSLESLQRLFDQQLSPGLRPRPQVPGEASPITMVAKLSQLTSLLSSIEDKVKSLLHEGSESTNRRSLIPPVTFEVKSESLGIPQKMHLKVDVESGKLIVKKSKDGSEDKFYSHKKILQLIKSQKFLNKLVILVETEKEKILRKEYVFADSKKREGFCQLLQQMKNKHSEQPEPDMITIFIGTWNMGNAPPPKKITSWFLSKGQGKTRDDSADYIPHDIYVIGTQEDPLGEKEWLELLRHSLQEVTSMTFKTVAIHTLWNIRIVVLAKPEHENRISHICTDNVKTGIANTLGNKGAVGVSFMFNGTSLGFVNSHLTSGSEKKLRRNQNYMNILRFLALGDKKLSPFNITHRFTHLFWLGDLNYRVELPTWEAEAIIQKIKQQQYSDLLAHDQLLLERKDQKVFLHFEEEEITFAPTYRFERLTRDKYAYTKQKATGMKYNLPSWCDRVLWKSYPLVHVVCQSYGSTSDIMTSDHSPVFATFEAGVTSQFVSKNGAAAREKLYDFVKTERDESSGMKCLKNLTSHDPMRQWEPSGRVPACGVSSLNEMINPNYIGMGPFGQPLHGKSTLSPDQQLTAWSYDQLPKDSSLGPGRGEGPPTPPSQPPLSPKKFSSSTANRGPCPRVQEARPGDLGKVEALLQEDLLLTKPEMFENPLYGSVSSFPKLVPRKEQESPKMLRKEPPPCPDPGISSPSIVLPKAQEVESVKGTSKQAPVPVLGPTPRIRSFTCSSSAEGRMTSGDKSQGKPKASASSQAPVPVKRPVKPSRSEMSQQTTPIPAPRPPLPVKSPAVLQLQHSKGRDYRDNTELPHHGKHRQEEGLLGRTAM
Test: Scintillation proximity assay, ΔC2 SHIP1
Format: binding
Settings: 5 μCi
Method: Scintillation Proximity Assays AQX-MN100 was radiolabeled with tritium by GE Healthcare (Piscataway, N.J.) to a specific activity of 42 Ci/mmole. Copper chelate (His-Tag) YSi YSi SPA Scintillation Beads (GE Healthcare ,Piscataway, NJ) were diluted in 0.25% BSA/TBS to 1.5 mg/mL and recombinant, His6-tagged protein added at the indicated concentrations: wild-type (1 pM), ΔC2 SHIP enzyme (1 pM) or C2 domain (10 nM). Protein was allowed to bind 1 h at 23° C., and 250 μg of beads were aliquoted per well of a 96-well plate. 5 μCi of [3H]-AQX-MN100 was added per well, the plate gently agitated for 30 min and the amount of bead associated radioactivity quantified by counting in a Wallac BETAPLATE™ plate scintillation counter. Results are representative of 3 independent experiments.

For Cc1cc(O)cc2c1[C@]1(C)CC[C@H]3C(C)(C)CCC[C@]3(C)[C@H]1C2 [AQX-MN100], the “binding of [3H]-AQX-MN100 to SHIP1 lacking its C2 domain” value was “C2 domain is required for SHIP1 to bind; also recorded: requires the C2 domain to bind”.
